Measurements as given in ChEMBL document CHEMBL1201862, “PubChem BioAssay data set” (2004).
The source made the active and inactive calls.

Key:
[1] = molecular target: T1, Microphthalmia-associated transcription factor (Homo sapiens, UniProt O75030); assay: reducers of TRPM1 reporter luminescence, concentration series – cell-based, SK-MEL-5, cherry-picked, set 3, MITF inhibitor project, dose response (AID 493073); assay type: functional;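 further: SK-MEL-5 melanoma cells with luciferase driven by the MITF target TRPM1 promoter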
T1 sequence (O75030 whole entry): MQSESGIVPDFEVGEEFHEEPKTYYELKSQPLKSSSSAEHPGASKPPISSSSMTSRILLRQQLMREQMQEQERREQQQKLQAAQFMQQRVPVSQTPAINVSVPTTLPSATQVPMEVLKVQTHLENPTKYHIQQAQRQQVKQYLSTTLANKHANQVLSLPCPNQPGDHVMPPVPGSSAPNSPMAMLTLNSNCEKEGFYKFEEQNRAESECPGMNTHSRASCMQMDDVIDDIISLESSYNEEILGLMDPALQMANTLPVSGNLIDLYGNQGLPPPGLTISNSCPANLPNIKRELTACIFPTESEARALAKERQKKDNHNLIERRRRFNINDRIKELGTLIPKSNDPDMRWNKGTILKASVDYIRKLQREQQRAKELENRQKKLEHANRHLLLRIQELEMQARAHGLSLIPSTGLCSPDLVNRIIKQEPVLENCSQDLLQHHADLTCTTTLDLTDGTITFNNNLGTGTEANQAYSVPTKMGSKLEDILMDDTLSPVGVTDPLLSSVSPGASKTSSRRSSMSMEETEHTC

[2] = molecular target: Induced myeloid leukemia cell differentiation protein Mcl-1 (Homo sapiens, UniProt Q07820); assay type: functional
[3] = viability of PTEN-deleted HCT116 cells – cell-based, HCT116 PTEN knockout, dose response (AID 1047); assay type: functional;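 further: HCT116 colon tumor cells with PTEN knocked out; cells exposed to compound for 60 hours before readout; potency for loss of cell viability measured by luminescence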
[4] = viability of HCT116 lacking mutant beta-catenin – cell-based, human colon tumor, dose response (AID 1045); assay type: functional;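 further: HCT116 colon tumor cells with beta catenin knocked out; cells exposed to compound for 60 hours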
[5] = reduced cellular PGC1a acetyl-lysine signal – cell-based, cherry-picked samples, dose response (AID 720514); assay type: functional;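 further: potency may reflect raised or lowered acetylation signal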
[6] = molecular target: Matrix metalloproteinase-14 (Homo sapiens, UniProt P50281); assay: Dose Response confirmation of uHTS hits for a small molecule inhibitors of MT1-MMP activation in a fluorescence assay set 2.; assay type: functional
[7] = viability loss in THP-1 monocytes – THP-1 cells, cytotoxicity control for Vif-APOBEC3G degradation inhibitor project, dose response (AID 1117359); assay type: functional; conditions: THP-1
[8] = Luminescence Cell-Based Dose Response HTS to Identify Inhibitors of 5'UTR Stem-Loop Driven Prion Protein mRNA Translation in H4 Neuroglioblastoma Cells. [Related pubchem assays: 1827 (Project Summary), 1813 (Primary HTS)]; assay type: functional
[9] = loss of viability in HepG2 cells – cell-based, CellTiter-Glo, cherry-picked, cytotoxicity control for Shn3 inhibitor project, dose response (AID 624134); assay type: functional
[10] = viability of uninfected HEp-2 cells – cell-based, HTS, cytotoxicity control for RSV inhibitor project, dose response (AID 2410); assay type: functional; conditions: human respiratory syncytial virus
[11] = molecular target: T2, Ubiquitin-conjugating enzyme E2 N (Homo sapiens, UniProt P61088); assay type: functional;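 further: Dose-response confirmation in a TR-FRET assay detecting UBC13-driven polyubiquitin chain formation, inhibition measured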
T2 sequence (P61088 whole entry): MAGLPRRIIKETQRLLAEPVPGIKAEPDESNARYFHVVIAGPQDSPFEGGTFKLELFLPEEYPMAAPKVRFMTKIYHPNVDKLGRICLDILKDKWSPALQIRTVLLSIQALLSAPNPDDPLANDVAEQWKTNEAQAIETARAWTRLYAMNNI

[12] = reduction of Shn3 3'UTR-driven luciferase in osteoblasts – cell-based, Clone20 osteoblasts, firefly luciferase, cherry-picked, dose response (AID 624132); assay type: functional;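 further: firefly luciferase luminescence from reporter carrying the Shn3 3'UTR in osteoblasts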
A549 = assay: viability loss in A549 cells – cell-based, plate reader, cherry-pick samples, cytotoxicity control, dose response (AID 687028); assay type: functional; conditions: Homo sapiens
[13] = luciferase reporter signal suppression in cells – H4 neuroglioma cells, luminescence, dose response (AID 1990); assay type: functional, cell-based
[14] = alpha-synuclein stem-loop luciferase translation blockers – H4 neuroglioma cells, luminescence, confirmation (AID 1988); assay type: functional, cell-based
[15] = non-specific 3'UTR reporter inhibition in Clone20-Shn3RL – cell-based, Renilla luciferase, cherry-picked, counter-screen for Shn3 inhibitor project, dose response (AID 624133); assay type: functional
[16] = molecular target: Fructose-bisphosphate aldolase (Mycobacterium tuberculosis, UniProt P9WQA3); assay: Fluorescence-based biochemical high throughput dose response assay for inhibitors of the fructose-bisphosphate aldolase (FBA) of M. tuberculosis.; assay type: functional
[17] = molecular target: T3, Oxysterols receptor LXR-beta (Homo sapiens, UniProt P55055); assay type: functional, cell-based;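 further: Cell-based luminescence dose-response assay of agonist activity at LXR, run as a confirmatory counterscreen to a daf-12 agonist screen; HEK293 cells with Gal4-LXR fusion and GAL4-driven luciferase reporter; agonist potency from rising luciferase signal of a Gal4-LXR reporter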
T3 sequence (P55055 whole entry): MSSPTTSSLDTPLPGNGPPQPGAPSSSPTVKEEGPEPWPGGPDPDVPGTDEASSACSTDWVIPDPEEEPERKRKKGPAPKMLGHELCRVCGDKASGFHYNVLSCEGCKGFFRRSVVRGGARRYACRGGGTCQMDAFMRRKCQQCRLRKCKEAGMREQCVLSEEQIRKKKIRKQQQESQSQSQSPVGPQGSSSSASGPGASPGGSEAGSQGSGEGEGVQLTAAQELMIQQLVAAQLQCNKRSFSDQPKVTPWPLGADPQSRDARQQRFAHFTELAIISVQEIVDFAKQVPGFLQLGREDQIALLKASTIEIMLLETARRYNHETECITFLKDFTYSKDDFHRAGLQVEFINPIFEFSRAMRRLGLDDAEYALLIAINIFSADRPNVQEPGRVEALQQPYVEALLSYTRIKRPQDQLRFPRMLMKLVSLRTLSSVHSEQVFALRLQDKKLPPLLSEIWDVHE

[18] = viability loss in HepG2 hepatoma cells – cell-based, ATP luminescence, cherry-pick, activator set 2, cytotoxicity control, dose response (AID 1053143); assay type: functional
[19] = molecular target: 1-phosphatidylinositol 4,5-bisphosphate phosphodiesterase beta-3 (Homo sapiens, UniProt Q01970); assay: Fluorescence-based biochemical high throughput dose response assay to identify inhibitors of phospholipase C isozymes (PLC-B3).
[20] = molecular target: 1-phosphatidylinositol 4,5-bisphosphate phosphodiesterase gamma-1 (Homo sapiens, UniProt P19174); assay: Counterscreen for inhibitors of phospholipase C isozymes (PLC-B3): Fluorescence-based biochemical high throughput dose response assay to identify inhibitors of phospholipase C isozymes (PLC-gamma1).
[21] = molecular target: T4, Small ubiquitin-related modifier 1 (Homo sapiens, UniProt P63165); assay: SUMO1 protein interaction blockers, potency – biochemical, fluorescence polarization, uHTS hits, dose response (AID 624382); assay type: functional; conditions: read-out: IC50_Mean
[22] = molecular target: T4, Small ubiquitin-related modifier 1; assay: SUMO1 protein-protein binding blockers, potency – biochemical, FRET, dose response (AID 624383); assay type: functional; conditions: read-out: IC50_Mean

T4 sequence (P63165 whole entry): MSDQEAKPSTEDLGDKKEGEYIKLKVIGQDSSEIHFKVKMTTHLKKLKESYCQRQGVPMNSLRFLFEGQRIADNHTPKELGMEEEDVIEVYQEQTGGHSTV
Chain of Fructose-bisphosphate aldolase (P9WQA3 whole entry, the tested form may be a part): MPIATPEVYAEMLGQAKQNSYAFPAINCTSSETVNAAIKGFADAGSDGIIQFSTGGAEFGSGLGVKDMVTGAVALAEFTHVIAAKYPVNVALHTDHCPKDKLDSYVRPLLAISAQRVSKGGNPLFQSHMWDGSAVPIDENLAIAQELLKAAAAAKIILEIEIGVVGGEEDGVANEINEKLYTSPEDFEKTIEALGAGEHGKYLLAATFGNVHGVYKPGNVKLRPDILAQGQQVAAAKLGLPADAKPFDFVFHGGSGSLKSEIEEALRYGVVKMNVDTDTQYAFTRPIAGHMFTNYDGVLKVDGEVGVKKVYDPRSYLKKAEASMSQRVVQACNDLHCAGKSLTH
Chain of 1-phosphatidylinositol 4,5-bisphosphate phosphodiesterase gamma-1 (P19174 whole entry): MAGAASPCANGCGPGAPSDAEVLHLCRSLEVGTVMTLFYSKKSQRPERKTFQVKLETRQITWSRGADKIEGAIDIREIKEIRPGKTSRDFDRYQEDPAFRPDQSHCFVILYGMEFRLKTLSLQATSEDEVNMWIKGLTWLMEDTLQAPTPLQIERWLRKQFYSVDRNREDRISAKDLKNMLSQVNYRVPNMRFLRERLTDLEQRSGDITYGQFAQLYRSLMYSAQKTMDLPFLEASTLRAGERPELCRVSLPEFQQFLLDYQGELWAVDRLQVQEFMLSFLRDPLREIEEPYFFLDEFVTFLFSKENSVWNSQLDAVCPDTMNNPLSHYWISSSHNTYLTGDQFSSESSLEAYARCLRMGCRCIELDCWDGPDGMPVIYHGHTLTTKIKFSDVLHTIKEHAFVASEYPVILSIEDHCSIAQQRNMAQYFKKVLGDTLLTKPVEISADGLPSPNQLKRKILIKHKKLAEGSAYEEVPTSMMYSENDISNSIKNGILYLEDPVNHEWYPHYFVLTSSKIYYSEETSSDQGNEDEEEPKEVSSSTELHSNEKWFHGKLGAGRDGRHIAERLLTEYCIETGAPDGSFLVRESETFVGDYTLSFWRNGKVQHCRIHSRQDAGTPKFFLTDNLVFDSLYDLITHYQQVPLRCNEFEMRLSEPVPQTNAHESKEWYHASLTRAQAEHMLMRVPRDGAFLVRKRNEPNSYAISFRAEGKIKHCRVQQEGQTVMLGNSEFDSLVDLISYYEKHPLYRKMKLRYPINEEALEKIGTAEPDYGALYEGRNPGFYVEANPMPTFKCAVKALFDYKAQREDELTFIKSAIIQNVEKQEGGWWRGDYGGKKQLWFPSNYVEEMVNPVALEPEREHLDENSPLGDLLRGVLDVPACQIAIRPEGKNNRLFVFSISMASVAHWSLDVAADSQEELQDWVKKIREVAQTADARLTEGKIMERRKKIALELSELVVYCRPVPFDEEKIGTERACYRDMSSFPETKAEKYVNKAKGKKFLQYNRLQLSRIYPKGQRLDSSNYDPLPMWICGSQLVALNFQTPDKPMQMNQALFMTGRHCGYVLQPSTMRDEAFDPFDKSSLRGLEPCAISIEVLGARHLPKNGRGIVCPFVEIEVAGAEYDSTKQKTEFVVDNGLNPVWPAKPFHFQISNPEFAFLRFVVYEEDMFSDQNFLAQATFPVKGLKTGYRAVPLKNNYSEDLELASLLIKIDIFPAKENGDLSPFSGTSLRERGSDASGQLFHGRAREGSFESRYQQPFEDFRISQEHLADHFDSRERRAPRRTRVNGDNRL
Chain of Induced myeloid leukemia cell differentiation protein Mcl-1 (Q07820 whole entry): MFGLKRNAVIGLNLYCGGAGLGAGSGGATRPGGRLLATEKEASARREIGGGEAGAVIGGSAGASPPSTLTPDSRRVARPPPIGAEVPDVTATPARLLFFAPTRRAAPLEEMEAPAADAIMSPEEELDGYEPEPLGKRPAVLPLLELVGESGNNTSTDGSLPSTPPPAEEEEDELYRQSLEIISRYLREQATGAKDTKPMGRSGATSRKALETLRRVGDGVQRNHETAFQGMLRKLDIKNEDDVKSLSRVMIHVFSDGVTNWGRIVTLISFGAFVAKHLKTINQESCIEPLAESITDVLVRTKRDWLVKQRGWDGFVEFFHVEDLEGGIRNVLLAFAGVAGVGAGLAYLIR
Chain of 1-phosphatidylinositol 4,5-bisphosphate phosphodiesterase beta-3 (Q01970 whole entry): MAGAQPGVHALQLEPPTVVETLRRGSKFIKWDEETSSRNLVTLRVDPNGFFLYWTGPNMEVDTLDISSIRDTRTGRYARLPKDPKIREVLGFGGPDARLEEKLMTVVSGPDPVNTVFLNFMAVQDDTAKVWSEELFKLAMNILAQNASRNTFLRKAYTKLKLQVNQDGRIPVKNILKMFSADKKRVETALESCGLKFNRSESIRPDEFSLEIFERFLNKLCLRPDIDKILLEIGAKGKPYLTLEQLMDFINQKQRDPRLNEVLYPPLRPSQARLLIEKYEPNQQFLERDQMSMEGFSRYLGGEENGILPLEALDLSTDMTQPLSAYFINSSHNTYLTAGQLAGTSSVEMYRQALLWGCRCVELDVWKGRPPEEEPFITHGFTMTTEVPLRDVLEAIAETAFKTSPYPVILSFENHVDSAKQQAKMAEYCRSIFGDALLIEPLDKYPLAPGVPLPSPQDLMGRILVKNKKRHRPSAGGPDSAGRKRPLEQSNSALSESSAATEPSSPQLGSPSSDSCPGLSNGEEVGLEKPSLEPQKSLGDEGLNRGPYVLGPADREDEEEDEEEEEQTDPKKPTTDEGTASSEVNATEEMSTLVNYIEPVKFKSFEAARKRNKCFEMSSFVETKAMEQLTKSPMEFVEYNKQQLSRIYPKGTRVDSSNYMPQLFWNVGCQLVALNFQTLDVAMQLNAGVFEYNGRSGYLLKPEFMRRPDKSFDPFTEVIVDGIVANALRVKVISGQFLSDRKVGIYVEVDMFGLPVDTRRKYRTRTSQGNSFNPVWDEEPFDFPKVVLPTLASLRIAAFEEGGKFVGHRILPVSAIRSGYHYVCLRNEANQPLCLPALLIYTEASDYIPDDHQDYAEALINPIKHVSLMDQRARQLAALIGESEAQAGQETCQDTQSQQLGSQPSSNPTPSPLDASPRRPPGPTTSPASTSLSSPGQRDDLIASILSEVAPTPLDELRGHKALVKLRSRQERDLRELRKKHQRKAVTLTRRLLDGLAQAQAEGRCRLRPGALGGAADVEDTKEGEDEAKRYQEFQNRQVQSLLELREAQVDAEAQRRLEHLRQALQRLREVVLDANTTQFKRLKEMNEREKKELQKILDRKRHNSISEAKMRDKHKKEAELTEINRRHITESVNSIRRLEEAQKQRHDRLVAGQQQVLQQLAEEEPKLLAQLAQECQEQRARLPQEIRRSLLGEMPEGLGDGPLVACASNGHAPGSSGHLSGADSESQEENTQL

SMILES: C=CCn1c(C)cc(C(=O)Cn2ncc(Cl)c(Cl)c2=O)c1C
- AC50 [1]: 9.97 µM (active)
- IC50 [2]: 5.14 µM (active)
- EC50 [3]: 3.08 µM (active)
- EC50 [4]: 2.12 µM (active)
- AC50 [5]: 5.68 µM (active)

SMILES: COc1ccc(OCC(=O)NNc2c3ccccc3nc3ccccc23)cc1
- IC50 [6]: > 80 µM (inactive)

SMILES: Cc1ccccc1S(=O)(=O)Cc1ccc(C(=O)NCCCN2CCC(C)CC2)o1
- CC50 [7]: > 40 µM (active)

SMILES: CCc1ccc(O)c(CNCCNCc2cc(CC)ccc2O)c1
- EC50 [8]: 12 µM (active)
- AC50 [9]: 15.6 µM (active)
- CC50 [10]: 9.08 µM (active)
- IC50 [11]: > 20 µM (inactive)
- AC50 [12]: 1.38 µM (active)
- AC50 (A549): 19.8 µM (active)
- EC50 [13]: 11 µM (active)
- EC50 [14]: 9.33 µM (active)
- AC50 [15]: 8.22 µM (active)

SMILES: Cc1cc(-c2ccc(Cl)cc2)n2nc(N)nc2n1
- IC50 [16]: 1.4 µM (active)

SMILES: Cc1ccc(-c2cnc3ccccc3n2)cc1C
- EC50 (cells): > 67.6 µM (inactive)
- EC50 [17]: > 67.6 µM (inactive)
- AC50 [18]: 26 µM (active)

SMILES: CCOc1c2ccc(C(=O)NC3CCCc4ccccc43)cc2nn1CC (stereo not given)
- IC50 [16]: 1.64 µM (active)

SMILES: O=C1NC[C@@H](Cc2ccc(O)cc2)N(CCc2cc(C(F)(F)F)cc(C(F)(F)F)c2)C1=O
- IC50 [19]: > 122 µM (inactive)
- IC50 [20]: 82.2 µM (inactive)
- IC50 [21]: > 66.6 µM (inactive)
- IC50 [22]: 9.75 µM (active)
